Here are results for 12 compounds from ChEMBL document CHEMBL1201862, “PubChem BioAssay data set” (2004).

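Cells were grown in 96-well plates and exposed to each compound for 48 hours at five concentrations; endpoints were interpolated linearly between bracketing concentrations, or set to the highest concentration if not reached. GI50 marks 50% less growth.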 Activity calls are given as the source filed them. Cut-off read from the data, not from the text of the source: active = GI50 up to about 1.1 µM and inactive = higher.

Some test systems named below: OVCAR-3; DMS-114; LOX IMVI; MOLT-4; SK-MEL-5; TK-10; UACC-257; M14; SK-OV-3; RXF 393; Malme-3M; SNB-19; RPMI-8226; SN12C; SK-MEL-28; ACHN; BT-549; DU-145; MDA-MB-231; MDA-N.
Holding throughout (experiment): DTP human tumour cell line panel, 48 h

Regarding `CSC(=S)c1ccc(C(=S)SC)cc1`, the GI50 in the test on OVCAR-3, in the test on DMS-114, with LOX IMVI, in the test on MOLT-4, with SK-MEL-5 and with TK-10 was > 100 µM (inactive) in each case. Further, the GI50 with UACC-257, in the test on M14, in the test on SK-OV-3, with RXF 393, in the test with Malme-3M and in the test on SNB-19 was > 100 µM (inactive) each time. The GI50 with RPMI-8226 and with SN12C was > 100 µM (inactive) throughout.
For the compound `O=C(O)CCC(N/C=C1/N=C(c2ccccc2)OC1=O)C(=O)O` (stereo unspecified), the GI50 with OVCAR-3, with DMS-114, in the test with SK-MEL-28, with MOLT-4, in the test with SK-MEL-5 and with TK-10 was > 100 µM (inactive) each time. The GI50 in the test on UACC-257, in the test on M14, with SK-OV-3, in the test on RXF 393, with ACHN and in the test with Malme-3M was > 100 µM (inactive) in each case. Moreover, the GI50 in the test on SNB-19, with RPMI-8226 and with SN12C was > 100 µM (inactive) each time.
Regarding `COc1ccc(Cc2c(=O)[nH]nc3ccccc23)cc1`, the GI50 (as a rule, the concentration that inhibits growth by half) in the test with OVCAR-3 is > 100 µM (inactive); in the test with DMS-114, > 100 µM (inactive); with LOX IMVI, > 100 µM (inactive); with SK-MEL-28 it was > 100 µM (inactive); in the test with MOLT-4 it was > 100 µM (inactive); with SK-MEL-5 it was 35.2 µM (inactive). Besides, the GI50 with TK-10, in the test with UACC-257, in the test on M14, in the test with SK-OV-3, in the test on ACHN and in the test with Malme-3M was > 100 µM (inactive) throughout. Moreover, the GI50 in the test on SNB-19, with RPMI-8226 and in the test on SN12C was > 100 µM (inactive) in each case.
With `CCN(CC)CCCNc1c2cc(OC)ccc2nc2cccc([N+](=O)[O-])c12`, the GI50 was 0.034 µM (active) in the test with OVCAR-3; 0.2 µM (active) in the test on BT-549; 0.024 µM (active) in the test with LOX IMVI; 0.231 µM (active) in the test on SK-MEL-28; 0.0551 µM (active) in the test on DU-145; 0.0274 µM (active) in the test with MOLT-4. Moreover, the GI50 with SK-MEL-5 is 0.0935 µM (active); in the test on TK-10, 0.195 µM (active); in the test on UACC-257 it was 0.227 µM (active); in the test on M14, 0.0938 µM (active); in the test on SK-OV-3, 0.246 µM (active); in the test with RXF 393, 0.0557 µM (active). The GI50 with ACHN was 0.0407 µM (active); in the test on MDA-MB-231, 0.122 µM (active); with Malme-3M, 0.118 µM (active); in the test on MDA-N it was 0.129 µM (active); in the test on SNB-19, 0.286 µM (active); with RPMI-8226, 0.0535 µM (active). Also, the GI50 in the test on SN12C is 0.11 µM (active).
Turning to `Cc1ccc(N2C(=O)CS/C2=C(\C#N)c2nc3ccccc3[nH]2)cc1`, the GI50 in the test on OVCAR-3, with DMS-114, with LOX IMVI, with SK-MEL-28, with MOLT-4 and with SK-MEL-5 was > 100 µM (inactive) throughout. For the same compound, the GI50 in the test on TK-10, in the test with UACC-257, in the test on M14, with ACHN, with Malme-3M and with SNB-19 was > 100 µM (inactive) each time. Also, the GI50 in the test with RPMI-8226 and with SN12C was > 100 µM (inactive) throughout.
In the case of `CCCOC(=O)C1CCC(=O)N1C(=O)C(Cl)Cl` (stereo unspecified), the GI50 in the test with OVCAR-3, in the test with DMS-114, with LOX IMVI, in the test with SK-MEL-28, in the test on MOLT-4 and in the test with SK-MEL-5 was > 100 µM (inactive) each time. The GI50 in the test with TK-10, with UACC-257, in the test on M14, in the test with SK-OV-3, in the test on ACHN and with Malme-3M was > 100 µM (inactive) each time. Besides, the GI50 with SNB-19, in the test on RPMI-8226 and with SN12C was > 100 µM (inactive) throughout.
Consider `Cc1nc2ccccc2n1CCc1nc2ccccc2s1`, for which the GI50 in the test with OVCAR-3 is 17.8 µM (inactive); in the test on BT-549, > 100 µM (inactive); with LOX IMVI it was 64.9 µM (inactive); with SK-MEL-28, > 100 µM (inactive); in the test on DU-145, 70.5 µM (inactive); in the test on MOLT-4, 12.9 µM (inactive). Further, the GI50 was 2.88 µM (inactive) in the test with SK-MEL-5; 45.4 µM (inactive) with TK-10; 9.95 µM (inactive) in the test on UACC-257; 33 µM (inactive) in the test with M14; > 100 µM (inactive) in the test with SK-OV-3; 50 µM (inactive) with RXF 393. Also, the GI50 in the test with ACHN was 20 µM (inactive); in the test with MDA-MB-231 it was 39.6 µM (inactive); in the test on Malme-3M, 17.3 µM (inactive); in the test with MDA-N, 48.9 µM (inactive); in the test with SNB-19 it was > 100 µM (inactive); in the test with RPMI-8226 it was 15 µM (inactive). Also, in the test with SN12C, the GI50 was > 100 µM (inactive).
Take `O=C1CC(C(=O)O)Cc2c(Br)ccc(O)c21` (stereo unspecified): the GI50 in the test with OVCAR-3, with BT-549, in the test with LOX IMVI, in the test on SK-MEL-28, with DU-145 and in the test on MOLT-4 was > 100 µM (inactive) each time. The GI50 in the test on SK-MEL-5, in the test with TK-10, with UACC-257, in the test on M14, in the test with SK-OV-3 and in the test on RXF 393 was > 100 µM (inactive) in each case. In addition, the GI50 with ACHN, with MDA-MB-231, in the test with Malme-3M, with MDA-N, with SNB-19 and in the test on RPMI-8226 was > 100 µM (inactive) in each case. For the same compound, the GI50 with SN12C is > 100 µM (inactive).
For the compound `CC/C(Cl)=N\OC(=O)Nc1ccc(F)c(Cl)c1`, the GI50 in the test with OVCAR-3 was 2.59 µM (inactive); with BT-549, 16.6 µM (inactive); in the test with LOX IMVI, 4.91 µM (inactive); in the test on SK-MEL-28 it was 15.6 µM (inactive); with DU-145, 19.7 µM (inactive); with MOLT-4 it was 1.48 µM (inactive). Also, the GI50 in the test on SK-MEL-5 was 15.6 µM (inactive); in the test with TK-10 it was 17.5 µM (inactive); with UACC-257, 17.3 µM (inactive); with M14 it was 2.38 µM (inactive); in the test with SK-OV-3, 18.5 µM (inactive); in the test with RXF 393, 12.1 µM (inactive). Moreover, the GI50 in the test with ACHN is 13.8 µM (inactive); in the test on MDA-MB-231 it was 20 µM (inactive); with Malme-3M it was 4.66 µM (inactive); in the test with MDA-N, 18.2 µM (inactive); with SNB-19, 14.4 µM (inactive); with RPMI-8226, 3.35 µM (inactive). For the same compound, the GI50 with SN12C was 18 µM (inactive).
`CCOP(=O)(OCC)C(=C1C=C(C(C)(C)C)C(=O)C(C(C)(C)C)=C1)P(=O)(OCC)OCC`: the GI50 is 2.41 µM (inactive) in the test on OVCAR-3; 2.86 µM (inactive) in the test on BT-549; > 10 µM (inactive) in the test on LOX IMVI; > 10 µM (inactive) in the test on SK-MEL-28; > 10 µM (inactive) in the test on DU-145; 2.89 µM (inactive) in the test with MOLT-4. Moreover, the GI50 in the test with SK-MEL-5 is > 10 µM (inactive); in the test on TK-10 it was 3.27 µM (inactive); in the test with UACC-257, > 8.15 µM (inactive); with M14, 1.97 µM (inactive); in the test with SK-OV-3, > 10 µM (inactive); in the test with RXF 393, 4.97 µM (inactive). Moreover, the GI50 in the test with ACHN is 1.94 µM (inactive); in the test on MDA-MB-231, > 9.27 µM (inactive); in the test on Malme-3M, 1.82 µM (inactive); with MDA-N, > 5.68 µM (inactive); in the test on SNB-19 it was > 10 µM (inactive); in the test with RPMI-8226 it was 5.08 µM (inactive). Also, the GI50 in the test on SN12C was > 10 µM (inactive).
With `Oc1cc(O)c2c(c1)OC(c1ccc(O)c(O)c1)C(OC1(c3cc(O)c(O)c(O)c3)Oc3cc(O)cc(O)c3C(O)C1O)C2` (stereo unspecified), the GI50 is 35.6 µM (inactive) in the test with OVCAR-3; 26.8 µM (inactive) in the test with BT-549; 18.3 µM (inactive) in the test with LOX IMVI; > 40.6 µM (inactive) in the test with SK-MEL-28; > 49 µM (inactive) with DU-145; 23.5 µM (inactive) in the test with MOLT-4. Moreover, the GI50 in the test with SK-MEL-5 is 18.3 µM (inactive); in the test with TK-10, > 100 µM (inactive); in the test with UACC-257 it was 37.4 µM (inactive); in the test with M14 it was 24.7 µM (inactive); in the test on SK-OV-3, > 65.5 µM (inactive); in the test with RXF 393, 73.5 µM (inactive). Further, the GI50 is 38.4 µM (inactive) with ACHN; 19.7 µM (inactive) in the test with MDA-MB-231; 87.9 µM (inactive) with Malme-3M; 20.3 µM (inactive) in the test with MDA-N; 55.1 µM (inactive) with SNB-19; 22.1 µM (inactive) in the test with RPMI-8226. Besides, the GI50 in the test with SN12C was 20.8 µM (inactive).
For `CCOC(=O)C1=NN(c2ccc(C)cc2)C2(c3ccccc3)C=C(c3ccccc3)N(C)CCN12` (stereo unspecified), the GI50 in the test on OVCAR-3, in the test with BT-549, in the test on LOX IMVI, in the test with SK-MEL-28, in the test with DU-145 and in the test on MOLT-4 was > 100 µM (inactive) throughout. Besides, the GI50 is > 100 µM (inactive) in the test with SK-MEL-5; > 100 µM (inactive) in the test on TK-10; 62.4 µM (inactive) in the test with UACC-257; > 100 µM (inactive) in the test with M14; > 100 µM (inactive) with SK-OV-3; > 100 µM (inactive) in the test with RXF 393. For the same compound, the GI50 is > 100 µM (inactive) with ACHN; > 100 µM (inactive) with MDA-MB-231; > 100 µM (inactive) with Malme-3M; > 100 µM (inactive) with MDA-N; > 100 µM (inactive) in the test with SNB-19; 29 µM (inactive) in the test on RPMI-8226. In addition, the GI50 with SN12C was > 100 µM (inactive).
